Laboratory results as given in US9487502B2, “Chemical compounds” (Syngenta Limited, priority 2013, dated 2016).

Columns and labels:
Assay type in all cases: in vivo
Echinochloa crus-galli [1] = assay: Post-emergence herbicidal activity, ECHCG; design: key: 5=total damage to plant; 0=no damage to plant; conditions: 1000 g/Ha, sprayed post-emergence (8 days cultivation), evaluated after 13 days, scale 0-5
Outline: (§1)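 Visual herbicidal injury (0 = no damage, 5 = plant killed) recorded 13 days post-treatment. Treatment consisted of a single spray onto emerged seedlings at day 8; conditions before and after were 24/16 °C, 14 h light, 65% humidity.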

Abutilon theophrasti [2] = assay: Post-emergence herbicidal activity, ABUTH; design: key: 5=total damage to plant; 0=no damage to plant; conditions: 1000 g/Ha, sprayed post-emergence (8 days cultivation), evaluated after 13 days, scale 0-5
Outline: as §1

Amaranthus retroflexus [3] = assay: Pre-emergence herbicidal activity, AMARE; design: key: 5=total damage to plant; 0=no damage to plant; conditions: 1000 g/Ha, sprayed pre-emergence, evaluated after 13 days, scale 0-5
Outline: (§2)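 Seeds sown in standard soil in pots, held one day in glasshouse (24/16 °C day/night, 14 h light, 65% humidity), then sprayed with aqueous solution of compound formulated in acetone/water 50:50 with 0.5% Tween 20. Grown on under same conditions, watered twice daily; damage scored after 13 days (0 = none, 5 = total).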

Setaria faberi [4] = assay: Pre-emergence herbicidal activity, SETFA; conditions: 1000 g/Ha, sprayed pre-emergence, evaluated after 13 days, scale 0-5
Outline: as §2

Abutilon theophrasti [5] = assay: Pre-emergence herbicidal activity, ABUTH; design: key: 5=total damage to plant; 0=no damage to plant; conditions: 1000 g/Ha, sprayed pre-emergence, evaluated after 13 days, scale 0-5
Outline: as §2

Alopecurus myosuroides [6] = assay: Post-emergence herbicidal activity, ALOMY; design: key: 5=total damage to plant; 0=no damage to plant; conditions: 1000 g/Ha, sprayed post-emergence (8 days cultivation), evaluated after 13 days, scale 0-5
Outline: as §1

Setaria faberi [7] = assay: Post-emergence herbicidal activity, SETFA; design: key: 5=total damage to plant; 0=no damage to plant; conditions: 1000 g/Ha, sprayed post-emergence (8 days cultivation), evaluated after 13 days, scale 0-5
Outline: as §1

Alopecurus myosuroides [8] = assay: Pre-emergence herbicidal activity, ALOMY; conditions: 1000 g/Ha, sprayed pre-emergence, evaluated after 13 days, scale 0-5
Outline: as §2

Zea mays [9] = assay: Pre-emergence herbicidal activity, ZEAMX; design: key: 5=total damage to plant; 0=no damage to plant; conditions: 1000 g/Ha, sprayed pre-emergence, evaluated after 13 days, scale 0-5
Outline: as §2

Amaranthus retroflexus [10] = assay: Post-emergence herbicidal activity, AMARE; design: key: 5=total damage to plant; 0=no damage to plant; conditions: 1000 g/Ha, sprayed post-emergence (8 days cultivation), evaluated after 13 days, scale 0-5
Outline: as §1

Echinochloa crus-galli [11] = assay: Pre-emergence herbicidal activity, ECHCG; conditions: 1000 g/Ha, sprayed pre-emergence, evaluated after 13 days, scale 0-5
Outline: as §2

Zea mays [12] = assay: Post-emergence herbicidal activity, ZEAMX; design: key: 5=total damage to plant; 0=no damage to plant; conditions: 1000 g/Ha, sprayed post-emergence (8 days cultivation), evaluated after 13 days, scale 0-5
Outline: as §1

## CC1C(OC(=O)Nc2ccc([N+](=O)[O-])cc2)N(c2cc(C(C)(C)C)ncn2)C(=O)N1C (stereo not drawn) [Example A36]
Echinochloa crus-galli [1]
  ECHCG damage score, application post-emergence: 5
Abutilon theophrasti [2]
  ABUTH damage score, application post-emergence: 5
Amaranthus retroflexus [3]
  AMARE damage score, application pre-emergence: 5
Setaria faberi [4]
  SETFA damage score, application pre-emergence: 4
Abutilon theophrasti [5]
  ABUTH damage score, application pre-emergence: 5
Alopecurus myosuroides [6]
  ALOMY damage score, application post-emergence: 5
Setaria faberi [7]
  SETFA damage score, application post-emergence: 5
Alopecurus myosuroides [8]
  ALOMY damage score, application pre-emergence: 4
Zea mays [9]
  ZEAMX damage score, application pre-emergence: 3
Amaranthus retroflexus [10]
  AMARE damage score, application post-emergence: 5
Echinochloa crus-galli [11]
  ECHCG damage score, application pre-emergence: 4
Zea mays [12]
  ZEAMX damage score, application post-emergence: 5

## CC1NC(=O)N(c2cc(C(C)(C)C)ncn2)C1O (stereo not drawn) [Example A32]
Echinochloa crus-galli [1]
  ECHCG damage score, application post-emergence: 2
Abutilon theophrasti [2]
  ABUTH damage score, application post-emergence: 5
Amaranthus retroflexus [3]
  AMARE damage score, application pre-emergence: 2
Setaria faberi [4]
  SETFA damage score, application pre-emergence: 1
Abutilon theophrasti [5]
  ABUTH damage score, application pre-emergence: 3
Alopecurus myosuroides [6]
  ALOMY damage score, application post-emergence: 3
Setaria faberi [7]
  SETFA damage score, application post-emergence: 2
Alopecurus myosuroides [8]
  ALOMY damage score, application pre-emergence: 1
Zea mays [9]
  ZEAMX damage score, application pre-emergence: 0
Amaranthus retroflexus [10]
  AMARE damage score, application post-emergence: 2
Echinochloa crus-galli [11]
  ECHCG damage score, application pre-emergence: 1
Zea mays [12]
  ZEAMX damage score, application post-emergence: 1

## COC1C(O)N(c2cc(C(C)(C)C)ncn2)C(=O)N1OC (stereo not drawn) [Example A7]
Echinochloa crus-galli [1]
  ECHCG damage score, application post-emergence: 4
Abutilon theophrasti [2]
  ABUTH damage score, application post-emergence: 5
Amaranthus retroflexus [3]
  AMARE damage score, application pre-emergence: 5
Setaria faberi [4]
  SETFA damage score, application pre-emergence: 4
Abutilon theophrasti [5]
  ABUTH damage score, application pre-emergence: 5
Alopecurus myosuroides [6]
  ALOMY damage score, application post-emergence: 5
Setaria faberi [7]
  SETFA damage score, application post-emergence: 5
Alopecurus myosuroides [8]
  ALOMY damage score, application pre-emergence: 4
Zea mays [9]
  ZEAMX damage score, application pre-emergence: 4
Amaranthus retroflexus [10]
  AMARE damage score, application post-emergence: 5
Echinochloa crus-galli [11]
  ECHCG damage score, application pre-emergence: 4
Zea mays [12]
  ZEAMX damage score, application post-emergence: 4
